This passage reports IC50 results from EP4782453A1 (Beyang Therapeutics Co., Ltd., priority 2023, dated 2025).

For one experiment, the target named is T1, Menin-MLL (Homo sapiens, UniProt O00255).
T1 construct: His-Menin (M1-L615 end); purchased BIORTUS BP9210
T1 sequence (O00255 1-615 isoform O00255-1): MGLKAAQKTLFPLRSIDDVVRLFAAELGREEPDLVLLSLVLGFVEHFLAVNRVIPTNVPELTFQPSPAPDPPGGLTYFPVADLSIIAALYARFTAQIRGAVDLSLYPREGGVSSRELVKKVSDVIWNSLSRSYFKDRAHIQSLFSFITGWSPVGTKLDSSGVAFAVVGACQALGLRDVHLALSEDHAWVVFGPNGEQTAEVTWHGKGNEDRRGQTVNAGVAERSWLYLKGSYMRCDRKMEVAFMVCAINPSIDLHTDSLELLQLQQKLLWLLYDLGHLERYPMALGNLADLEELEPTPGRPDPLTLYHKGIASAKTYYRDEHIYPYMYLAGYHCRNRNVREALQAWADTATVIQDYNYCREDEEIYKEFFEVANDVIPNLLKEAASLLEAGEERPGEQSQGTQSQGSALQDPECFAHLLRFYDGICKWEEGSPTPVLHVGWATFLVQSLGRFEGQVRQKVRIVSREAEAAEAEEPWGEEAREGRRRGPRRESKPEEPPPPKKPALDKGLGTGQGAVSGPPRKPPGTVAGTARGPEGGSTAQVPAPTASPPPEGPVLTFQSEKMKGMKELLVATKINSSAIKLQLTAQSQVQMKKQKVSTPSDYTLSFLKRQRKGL
Description: Inhibitory activity against Menin-MLL binding (fluorescence polarization). In a few lines:
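Fluorescence polarization competition: compound and 150 nM His-tagged menin (residues M1-L615) sit 15 min at 25 °C in pH 7.5 HEPES buffer with NaCl, DTT and BSA; 15 nM FITC-labelled MLL peptide then binds for 60 min. IC50 fitted sigmoidally from mP values, duplicate wells.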
In general terms: In fluorescence polarisation assays a small probe gives low polarisation when free and higher when bound to something large.

Experiment [1] has as its system MV-4-11 (carrying MLL-AF4). Description: Inhibition of proliferation of human tumor cells (Alamar Blue, 7 days), MV-4-11. The following applies: Homo sapiens, MV4-11, 168 h, MV-4-11 cells (carrying MLL-AF4), method calls the value GI50. The class given is cell-based. The method, boiled down: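 Alamar Blue fluorescence at Day 7, normalised between 0.1% DMSO wells on Day 7 (high) and Day 0 (low), gives GI50. Cells grew with compound at 37°C, 5% CO2; seeding 4,000 cells/well for MV-4-11 and MOLM-13, 3,000 for KG-1a.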

The mark [2] stands for this setting: fluorescence polarization; 150 nM His-Menin, 15 nM FITC-MLL; 25°C for 60 min; read-out: Menin-MLL IC50.

Read-outs that look alike come from different tables or passages of the source.

The term IC50 denotes the midpoint of a concentration-inhibition curve.

For the compound `CCN(C(=O)c1cc(F)ccc1-c1cc(C2CN([C@H](CCCN3CCN(CCO)CC3)C(C)C)C2)cn2c(C)ncc12)C(C)C` [Example 398, N-ethyl-5-fluoro-2-(6-{1-[(3R)-6-[4-(2-hydroxyethyl)piperazin-1-yl]-2-methylhexan-3-yl]azacyclobutan-3-yl}-3-methylimidazo[1,5-a]pyridin-8-yl)-N-(isopropyl)benzamide], the results for the IC50 (on Menin-MLL (setting [2]); in experiment [1]) were 1.9 nM and 1.1 nM, respectively.

Consider `Cc1nc(F)c2c(-c3ccc(F)cc3C(=O)N3CCOC[C@H]3C)cc(C3CN([C@H](CO[C@@H]4CCCN(C)C4)C(C)C)C3)cn12` [Example 297-1, (3R)-4-[5-fluoro-2-(1-fluoro-3-methyl-6-{1-[(2S)-3-methyl-1-{[(3R)-1-methylpiperidin-3-yl]oxy}butan-2-yl]azacyclobutan-3-yl}imidazo[1,5-a]pyridin-8yl)benzoyl]-3-methylmorpholine], for which the IC50 on Menin-MLL (setting [2]) turned out to be 10.8 nM; in experiment [1], 12 nM. In the same order, the values of `Cc1nc(F)c2c(-c3ccc(F)cc3C(=O)N3CCOC[C@H]3C)cc(C3CN([C@H](CCCN4CCC[C@H](O)C4)C(C)C)C3)cn12` [Example 293] are 3.1 nM and 2 nM.

As for `CCN(C(=O)c1cc(F)ccc1-c1cc(C2CN([C@H](CCCN3C4COCC3C4)C(C)C)C2)cn2c(C)ncc12)C(C)C` [Example 423], the IC50 on Menin-MLL (setting [2]) came to 1.7 nM; in experiment [1] it was 1.2 nM. Consider `Cc1nc(F)c2c(-c3ccc(F)cc3C(=O)N3CCOC[C@H]3C)cc(C3CN([C@H](CN4CCN(C)CC4)C(C)C)C3)cn12` [Example 368-2, (3R)-4-[5-fluoro-2-(1-fluoro-3-methyl-6-{1-[(2S)-3-methyl-1-(4-methylpiperazin-1-yl)butan-2-yl]azacyclobutan-3-yl}imidazo[1,5-a]pyridin-8-yl)benzoyl]-3-methylmorpholine], for which the figures for the IC50 (on Menin-MLL (setting [2]); in experiment [1]) were 4.3 nM and 5 nM, respectively. In the same order, the values of `Cc1nc(F)c2c(-c3ccc(F)cc3C(=O)N3[C@H](C)COC[C@H]3C)cc(C3CN(CC4CCOCC4)C3)cn12` [Example 208] are 9 nM and 6.6 nM. In the case of `CCS(=O)(=O)N[C@H]1CC[C@H](CN2CC(c3cc(-c4ccc(F)cc4C(=O)N4[C@H](C)COC[C@H]4C)c4c(F)nc(C)n4c3)C2)CC1` [Example 197, N-[(1r,4r)-4-{[3-(8-{2-[(3R,5R)-3,5-dimethylmorpholin-4-carbonyl]-4-fluorophenyl}-1-fluoro-3-methylimidazo[1,5-a]pyridin-6-yl)azacyclobutan-1-yl]methyl}cyclohexyl]ethan-1-sulfonamide], the IC50 came out at 6.5 nM on Menin-MLL (read-out: Menin-MLL IC50; fluorescence polarization; 150 nM His-Menin, 15 nM FITC-MLL; 25°C for 60 min) and 4 nM in experiment [1]. Consider `CO[C@@H]1CCCN(CCC[C@H](C(C)C)N2CC(c3cc(-c4ccc(F)cc4C(=O)N4CCOC[C@H]4C)c4c(F)nc(C)n4c3)C2)C1` [Example 305], for which the IC50 on Menin-MLL (setting [2]) came to 8 nM; in experiment [1] it was 3.4 nM.

With `Cc1nc(F)c2c(-c3ccc(F)cc3C(=O)N3CCOC[C@H]3C)cc(C3CN(C(CC[C@@H]4COCCN4)C(C)C)C3)cn12` (stereo partly drawn) [Example 371, (3R)-4-{5-fluoro-2-[1-fluoro-3-methyl-6-(1-{4-methyl-1-[(3R)-morpholin-3-yl]pentan-3-yl}azacyclobutan-3-yl)imidazo[1,5-a]pyridin-8-yl]benzoyl}-3-methylmorpholine], the IC50 on Menin-MLL (setting [2]) stood at 4.8 nM.

Consider `CCN(C(=O)c1cc(F)ccc1-c1cc(C2CN([C@H](CCCN3C[C@H]4C[C@@H]3CO4)C(C)C)C2)cn2c(C)ncc12)C(C)C` [Example 379, N-ethyl-5-fluoro-2-(3-methyl-6-{1-[(3R)-2-methyl-6-[(1R,4R)-2-oxa-5-azabicyclo[2.2.1]heptan-5-yl]hexan-3-yl]azacyclobutan-3-yl}imidazo[1,5-a]pyridin-8-yl)-N-(isopropyl)benzamide], for which the IC50 on Menin-MLL (setting [2]) was 1.8 nM; in experiment [1], 0.4 nM. Taken in the same sequence, the figures for `Cc1nc(F)c2c(-c3ccc(F)cc3C(=O)N3CCOCC3C)cc(C3CN(C(CCCN4CCCC(O)C4)C(C)C)C3)cn12` (stereo not shown) [Example 292] were 4.5 nM and 2.4 nM. In the same order, the values of `CNC(=O)N1CCC([C@H](C)N2CC(c3cc(-c4ccc(F)cc4C(=O)N4CCOC[C@H]4C)c4c(F)nc(C)n4c3)C2)CC1` [Example 264-2] are 6 nM and 4.7 nM. Taken in the same sequence, the figures for `COC1CCN(CCC[C@H](C(C)C)N2CC(c3cc(-c4ccc(F)cc4C(=O)N4CCOC[C@H]4C)c4c(F)nc(C)n4c3)C2)CC1` [Example 204, (3R)-4-[5-fluoro-2-(1-fluoro-6-{1-[(3R)-6-(4-methoxypiperidin-1-yl)-2-methylhexan-3-yl]azacyclobutan-3-yl}-3-methylimidazo[1,5-a]pyridin-8-yl)benzoyl]-3-methylmorpholine] were 4.8 nM and 2.8 nM.

As for `Cc1nc(F)c2c(-c3ccc(F)cc3C(=O)N3CCOC[C@H]3C)cc(C3CN([C@H](CCCN4CCC(F)CC4)C(C)C)C3)cn12` [Example 314], the half-inhibitory concentration (IC50) stood at 2.5 nM on Menin-MLL (setting [2]) and 1.1 nM in experiment [1]. Regarding `CCNC(=O)N1CCC(CN2CC(c3cc(-c4ccc(F)cc4C(=O)N4CCOC[C@H]4C)c4c(F)nc(C)n4c3)C2)CC1` [Example 261], the IC50 at Menin-MLL (setting [2]) was 8.5 nM; in experiment [1] it was 9.6 nM.

On to `COCCN(C)CCCC(C(C)C)N1CC(c2cc(-c3ccc(F)cc3C(=O)N3CCOCC3C)c3cnn(C)c3c2)C1` (stereo not shown) [Example 185], for which the IC50 at Menin-MLL (setting [2]) is 14.5 nM; in experiment [1] it was 26 nM. For `Cc1ncc2c(-c3ccc(F)cc3C(=O)N3CCOC[C@H]3C)cc(C3CN([C@H](CCCN4CCN(C)CC4)C(C)C)C3)cn12` [Example 323-2, (3R)-4-[5-fluoro-2-(3-methyl-6-{1-[(3R)-2-methyl-6-(4-methylpiperazin-1-yl)hexan-3-yl]azacyclobutan-3-yl}imidazo[1,5-a]pyridin-8-yl)benzoyl]-3-methylmorpholine], the half-maximal inhibitory concentration (IC50) was determined as 2.7 nM at Menin-MLL (setting [2]) and 2.4 nM in experiment [1].

For `Cc1nc(F)c2c(-c3ccc(F)cc3C(=O)N3CCOC[C@H]3C)cc(C3CN([C@H](CO[C@H]4CCCN(C)C4)C(C)C)C3)cn12` [Example 321-2, (3R)-4-[5-fluoro-2-(1-fluoro-3-methyl-6-{1-[(2S)-3-methyl-1-{[(3S)-1-methylpiperidin-3-yl]oxy}butan-2-yl]azacyclobutan-3-yl}imidazo[1,5-a]pyridin-8yl)benzoyl]-3-methylmorpholine], the IC50 at Menin-MLL (setting [2]) was 3.8 nM; in experiment [1], 2.6 nM. With `CC(=O)N1CCC([C@H](C)N2CC(c3cc(-c4ccc(F)cc4C(=O)N4CCOC[C@H]4C)c4c(F)nc(C)n4c3)C2)CC1` [Example 257-2, 1-{4-[(1S)-1-[3-(1-fluoro-8-{4-fluoro-2-[(3R)-3-methylmorpholin-4-carbonyl]phenyl}-3-methylimidazo[1,5-a]pyridin-6-yl)azacyclobutan-1-yl]ethyl]piperidin-1-yl}ethan-1-one], the values for the IC50 (at Menin-MLL (setting [2]); in experiment [1]) were 13.8 nM and 17 nM, respectively. With `CC(=O)N1CCC(CN2CC(c3cc(-c4ccc(F)cc4C(=O)N4[C@H](C)COC[C@H]4C)c4c(F)nc(C)n4c3)C2)CC1` [Example 205], the IC50 worked out at 10.3 nM on Menin-MLL (setting [2]) and 7.4 nM in experiment [1]. As for `CCN(C(=O)c1cc(F)ccc1-c1cc(C2CN([C@@H](C)C3CCN(C(=O)CO)CC3)C2)cn2c(C)nc(F)c12)C(C)C` [Example 284-2], the IC50 on Menin-MLL (setting [2]) amounted to 2 nM; in experiment [1], 1.5 nM. In the same order, the values of `CC[C@@H](C1CCN(C(C)=O)CC1)N1CC(c2cc(-c3ccc(F)cc3C(=O)N3CCOC[C@H]3C)c3c(F)nc(C)n3c2)C1` [Example 280-1, 1-{4-[(1S)-1-[3-(1-fluoro-8-{4-fluoro-2-[(3R)-3-methylmorpholin-4-carbonyl]phenyl}-3-methylimidazo[1,5-a]pyridin-6-yl)azacyclobutan-1-yl]propyl]piperidin-1-yl}ethan-1-one] are 15 nM and 6.9 nM. In the same order, the values of `COCCN(C)CCCC(C(C)C)N1CC(c2cc(-c3ccc(F)cc3C(=O)N(CC(F)F)C(C)C)c3c(F)nc(C)n3c2)C1` (stereo not shown) [Example 142, N-(2,2-difluoroethyl)-5-fluoro-2-[1-fluoro-6-(1-{6-[(2-methoxyethyl)(methyl)amino]-2-methylhexan-3-yl}azacyclobutan-3-yl)-3-methylimidazo[1,5-a]pyridin-8-yl]-N-(isopropyl)benzamide] are 10 nM and 2.2 nM.

On to `Cc1nc(F)c2c(-c3ccc(F)cc3C(=O)N3CCOC[C@H]3C)cc(C3CN([C@H](CCCN4CCN(C5CC5)CC4)C(C)C)C3)cn12` [Example 350], for which the IC50 on Menin-MLL (setting [2]) turned out to be 3.3 nM.
